In patent US20110190503A1, “Thiazolopyridin-2-yloxy-phenyl and thiazolopyrazin-2-yloxy-phenyl amines as modulators of leukotriene A4 hydrolase” (Janssen Pharmaceutical NV, priority 2008, published 2011):
Where two headings read alike, the source gives them in different places.

How the values were obtained:
[1] = target: T1, recombinant human LTA4 hydrolase (rhLTA4H) (Homo sapiens, UniProt P09960); test: Recombinant human LTA4 hydrolase assay for LTA4 hydrolase inhibitor activity; type: biochemical
T1 construct: made in house; host or cells: Spodoptera frugiperda (Sf-9) cells, recombinant baculovirus (pFastBac1)
T1 sequence (P09960 1-611): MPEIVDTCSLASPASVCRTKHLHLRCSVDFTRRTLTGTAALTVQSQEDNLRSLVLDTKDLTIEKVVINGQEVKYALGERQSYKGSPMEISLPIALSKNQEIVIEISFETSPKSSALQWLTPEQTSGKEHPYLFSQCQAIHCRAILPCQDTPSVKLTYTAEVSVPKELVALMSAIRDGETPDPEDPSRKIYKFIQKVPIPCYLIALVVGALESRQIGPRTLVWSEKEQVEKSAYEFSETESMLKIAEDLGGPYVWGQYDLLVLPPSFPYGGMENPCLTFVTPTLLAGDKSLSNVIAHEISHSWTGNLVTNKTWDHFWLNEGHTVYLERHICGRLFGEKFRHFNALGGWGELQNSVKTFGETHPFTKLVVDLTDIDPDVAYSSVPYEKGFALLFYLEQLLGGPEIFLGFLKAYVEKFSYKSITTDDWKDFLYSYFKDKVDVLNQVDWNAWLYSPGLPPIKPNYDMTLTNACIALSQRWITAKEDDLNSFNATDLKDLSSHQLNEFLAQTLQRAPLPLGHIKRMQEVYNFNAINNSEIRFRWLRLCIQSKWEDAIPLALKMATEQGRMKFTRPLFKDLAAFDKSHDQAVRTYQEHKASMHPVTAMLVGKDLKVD
Procedure, shortened: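 Recombinant human LTA4H from baculovirus-infected Sf-9 cells (10 ng) pre-incubated 10 min at rt with compound (10% DMSO in dilutions), then reacted with free-acid LTA4 for 30 min at rt. LTB4 measured by ELISA; IC50 by nonlinear regression. Values are single determinations or averages.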

[2] = tested on: ex vivo stimulated LTB4 production; test: Murine arachidonic acid-induced inflammation model: ex vivo stimulated LTB4 production (% Inh. LTB4); conditions: Mus musculus; female Balb/c mice, 30 mg/kg oral gavage; blood taken 3 h after arachidonic acid, ex vivo A23187 stimulation; number of determinations in parentheses
Procedure, shortened: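 Female Balb/c mice got 30 mg/kg orally in 20% cyclodextran/H2O. Heparinized blood in RPMI-1640 was stimulated with A23187 ([…]) for 30 min at 37 °C. LTB4 was measured by ELISA as % inhibition versus vehicle-dosed mice.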

[3] = tested on: neutrophil influx; test: Murine arachidonic acid-induced inflammation model: neutrophil influx in ear, myeloperoxidase activity (% Inh. MPO); type: in vivo; conditions: Mus musculus, female Balb/c mice, 30 mg/kg oral gavage, ear biopsy 3 h after topical arachidonic acid, number of determinations in parentheses
Procedure, shortened: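 Female Balb/c mice were dosed orally at 30 mg/kg (20% cyclodextran/H2O). Ear biopsies at 3 h; MPO activity by TMB, A405, acetone ear subtracted; inhibition versus vehicle-dosed mice.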

[4] = rhLTA4H, LTA4 substrate, LTB4 by immunoassay, single determination or average, read-out: IC50

SMILES | IC50 [1, 4] | inhibition at 30 mg/kg [2] | inhibition in vivo at 30 mg/kg [3] | IC50 [1]
CC(=O)N1C[C@@H]2C[C@H]1CN2CCOc1ccc(Oc2nc3ncccc3s2)cc1 [Example 14, 2-(4-{2-[(1S,4S)-5-Acetyl-2,5-diazabicyclo[2.2.1]hept-2-yl]ethoxy}phenoxy)[1,3]thiazolo[4,5-b]pyridine] | 7.5 ± 4.6 nM | 84% | 72.3% | –
CC(=O)N1C[C@@H]2C[C@H]1CN2Cc1ccc(Oc2nc3ncc(C)cc3s2)cc1 [Example 121, 2-(4-{[(1S,4S)-5-Acetyl-2,5-diazabicyclo[2.2.1]hept-2-yl]methyl}phenoxy)-6-methyl[1,3]thiazolo[4,5-b]pyridine] | 38 ± 17 nM | 83% | 83% | –
NC(=O)N1C[C@@H]2C[C@H]1CN2Cc1ccc(Oc2nc3ncccc3s2)cc1 [Example 106, (1S,4S)-5-[4-([1,3]Thiazolo[4,5-b]pyridin-2-yloxy)benzyl]-2,5-diazabicyclo[2.2.1]heptane-2-carboxamide] | 3.5 nM | 90.5% | 95.2% | –
O=C1CCCN1C1CCN(CCOc2ccc(Oc3nc4ncccc4s3)cc2)CC1 [Example 32, 1-(1-{2-[4-([1,3]Thiazolo[4,5-b]pyridin-2-yloxy)phenoxy]ethyl}piperidin-4-yl)pyrrolidin-2-one] | 8.9 nM | 89% | 76% | –
CC(=O)N[C@@H]1C[C@H]2CC[C@@H](C1)N2Cc1ccc(Oc2nc3ncccc3s2)cc1 [Example 109, meso-N-{(3-exo)-8-[4-([1,3]Thiazolo[4,5-b]pyridin-2-yloxy)benzyl]-8-azabicyclo[3.2.1]oct-3-yl}acetamide] | – | 84.8% | 71.5% | 0.97 nM
NC(=O)N1C[C@H]2C[C@@H]1CN2Cc1ccc(Oc2nc3ncccc3s2)cc1 [Example 266, (1R,4R)-5-[4-([1,3]Thiazolo[4,5-b]pyridin-2-yloxy)benzyl]-2,5-diazabicyclo[2.2.1]heptane-2-carboxamide] | 2 nM | 78.6% | 85.8% | –
NC(=O)N1C[C@@H]2C[C@H]1CN2CCc1ccc(Oc2nc3ncccc3s2)cc1 [Example 45, (1S,4S)-5-{2-[4-([1,3]Thiazolo[4,5-b]pyridin-2-yloxy)phenyl]ethyl}-2,5-diazabicyclo[2.2.1]heptane-2-carboxamide] | 3.9 nM | 86.8% | 71.1% | –
NC(=O)C1CCN(CCOc2ccc(Oc3nc4ncccc4s3)cc2)CC1 [Example 31, 1-{2-[4-([1,3]Thiazolo[4,5-b]pyridin-2-yloxy)phenoxy]ethyl}piperidine-4-carboxamide] | 29 nM | 79.8% | 70.5% | –
CC(=O)N1C[C@H]2C[C@@H]1CN2Cc1ccc(Oc2nc3ncccc3s2)cc1 [Example 265, 2-(4-{[(1R,4R)-5-Acetyl-2,5-diazabicyclo[2.2.1]hept-2-yl]methyl}phenoxy)[1,3]thiazolo[4,5-b]pyridine] | 11 nM | 84.4% | 90.8% | –
CC(=O)N1C[C@H]2CC[C@@H](C1)N2CCc1ccc(Oc2nc3ncccc3s2)cc1 [Example 55, meso-2-(4-{2-[3-Acetyl-3,8-diazabicyclo[3.2.1]oct-8-yl]ethyl}phenoxy)[1,3]thiazolo[4,5-b]pyridine] | 4.8 nM | 83.7% | 73.5% | –
CC(=O)N1C[C@H]2C[C@@H]1CN2CCOc1ccc(Oc2nc3ncccc3s2)cc1 [Example 267, 2-(4-{2-[(1R,4R)-5-Acetyl-2,5-diazabicyclo[2.2.1]hept-2-yl]ethoxy}phenoxy)[1,3]thiazolo[4,5-b]pyridine] | 3 nM | 83.4% | 90.6% | –
CC(=O)N1C[C@@H]2C[C@H]1CN2CCc1ccc(Oc2nc3ncccc3s2)cc1 [Example 75, 2-(4-{2-[(1S,4S)-5-Acetyl-2,5-diazabicyclo[2.2.1]hept-2-yl]ethyl}phenoxy)[1,3]thiazolo[4,5-b]pyridine] | 12 nM | 89.5% | 68.1% | –
CC(=O)N[C@H]1C[C@H]2CC[C@@H](C1)N2Cc1ccc(Oc2nc3ncccc3s2)cc1 [Example 116, meso-N-{(3-endo)-8-[4-([1,3]Thiazolo[4,5-b]pyridin-2-yloxy)benzyl]-8-azabicyclo[3.2.1]oct-3-yl}acetamide] | – | 81% | 70% | 1 ± 0.51 nM
O=C1CCCN1C1CCN(Cc2ccc(Oc3nc4ncccc4s3)cc2)CC1 [Example 83, 1-{1-[4-([1,3]Thiazolo[4,5-b]pyridin-2-yloxy)benzyl]piperidin-4-yl}pyrrolidin-2-one] | 6.3 nM | 81% | 88.2% | –
CC(=O)N1CC2CN(CCc3ccc(Oc4nc5ncccc5s4)cc3)CC2C1 (stereo not drawn) [Example 73, 2-{4-[2-(5-Acetylhexahydropyrrolo[3,4-c]pyrrol-2(1H)-yl)ethyl]phenoxy}[1,3]thiazolo[4,5-b]pyridine] | 12 nM | 85.7% | 79.4% | –
